Measurements taken from patent US5128369A, “Arylalkylamine derivatives” (Kyowa Hakko Kogyo Co., Ltd., priority 1989, dated 1992).

Columns and labels:
[1] = system: tracheae (zig-zag strips from passively sensitized guinea pigs); assay: passive Schultz-Dale reaction (bronchodilatory effects), relaxation of antigen-contracted tracheal strips; parameters: species or system guinea pig (male Hartley); conditions: Cavia porcellus; EWA (1 μg/ml)-induced contraction, guinea pig trachea, 37° C., cumulative addition; read-out: Bronchodilatory effect IC50 (concentration to produce 50% relaxation)
Protocol: Effects on passive Schultz-Dale reaction (bronchodilatory effects)
After 24 hours, the guinea pigs were stunned and exsanguinated, and then tracheae were removed. The zig-zag strips of the tracheae were prepared by the method of Emmerson, et al. [J. Pharm. […] After the contraction reached stable plateau, the compounds were cumulatively added in order to get concentration-relaxation curves.

PCA reaction = assay: 48 hour-homologous passive cutaneous anaphylaxis (PCA) test in rats (antiallergic effects); format: in vivo, rat (male Wistar); parameters: key to Anti-PCA MED (minimum effective dosage): NE: no effect; conditions: rat, oral, 1 hour before PCA challenge, inhibition 50% or higher in at least one of three animals; for minimal effective dose: read-out: Anti-PCA MED (minimum effective dosage)
Protocol: Antiallergic effects: Antiallergic effects of compounds were studied by passive cutaneous anaphylaxis (PCA) test in rats. Male Wistar rats weighing 180 to 220 g were used for collection of antiserum and Male Wistar rats weighing 120 to 140 g for PCA test. (A) Preparation of anti-EWA serum in rat Anti-EWA rat serum was prepared by the method of Stotland, et al [Can. J. Physiol. Pharmacol., 52, 1114, (1974)] as follows. That is, 1 mg of EWA, 20 mg of aluminium hydroxide gel and 0.5 ml of mixed vaccine of pertussis, diphtheria and tetanus were mixed, and the mixture was subcutaneously injected in four foodpads of rats. After 14 days, the blood of sensitized rats was collected from the carotid artery. The serum was separated by centrifugation from collected blood, and stored at -80° C. The 48 hour homologous PCA titer of the serum was 1 :64. (B) Effects on 48 hour-homologous PCA tests in rats Three rats in each group were passively sensitized with 8 hold diluted anti-EWA serum (0.05 ml) intradermally injected in two sites of shaved dosal area of rats. After 47 hours, the test compound or its solvent (saline or CMC solution) was orally administrated, and 1 hour thereafter, PCA reaction was induced by intravenous administration of 1% Evan's blue in saline (0.5 ml/100 g) containing 2 mg of EWA. After 30 minutes, animals were sacrificed by bleeding and dorsal skin was stripped to determine the leakage of dye at blue spots, by the method of Katayama et al. [Microbiol. Immunol., 22, 89 (1978)]. The blue-dyed spots were dissected and placed in a test tube containing 1 ml of 1N sodium hydroxide and incubated at 37° C. for 48 hours. Then, 9 ml of a mixture of 0.6N phosphate:acetone (5:13) was added thereto. After shaking, the mixture was centrifuged at 2500 rpm for 10 minutes. A supernatant was separated, and extravasated dye in the supernatant was determined photometrically at 620 nm. Inhibition percent was calculated as follows: [formula]

dd-mice = assay: Acute toxicity (minimum lethal dose); format: in vivo; conditions: male dd-mice, mortality for seven days
Protocol: The compounds were orally administrated (po) or intraperitoneally administrated (ip) to three male dd-mice weighing 20±1 g. Minimum lethal dose (MLD) was determined by observing the mortality for seven days after the administration.

Row | Structure (SMILES) | IC50 [1] [nM] | Anti-PCA MED (minimum effective dosage) (PCA reaction) | Acute Toxicity MLD ip (minimum lethal dose) (dd-mice) [mg/kg] | Acute Toxicity MLD po (minimum lethal dose) (dd-mice) [mg/kg] | minimal effective dose (PCA reaction) [mg/kg]
1 | CC(CC1OCCc2ccccc21)NCC(O)c1cccs1 (centres unmarked) [Compound 20, 2-[2-(Isochroman-1-yl)-1-methylethylamino]-1-thienylethanol] | 36.1 | NE | > 100 | > 300 | –
2 | CC(CC1c2ccccc2CCN1C)NCC(O)c1ccc(O)cc1 (centres unmarked) [Compound 31, 1-(4-Hydroxyphenyl)-2-[1-methyl-2-(2-methyl-1,2,3,4-tetrahydroisoquinolin-1-yl)ethylamino]ethanol] | 85 | NE | > 100 | > 300 | –
3 | CC(CC1OCCc2ccccc21)NCC(O)c1ccccc1O (centres unmarked) [Compound 8, 1-(2-Hydroxyphenyl)-2-[2-(isochroman-1-yl)-1-methylethylamino]ethanol] | 53 | NE | 100 | 200 | –
4 | CC(CC1OCCc2ccccc21)NC[C@@H](O)c1ccccc1 (stereo partly drawn) [Compound 6, (1S)-2-[2-(Isochroman-1-yl)-1-methylethylamino]-1-phenylethanol] | 12000 | NE | > 100 | 200 | –
5 | CC(CC1OCCc2ccccc21)NC[C@H](O)c1ccccc1 (stereo partly drawn) [Compound 5, (1R)-2-[2-(Isochroman-1-yl)-1-methylethylamino]-1-phenylethanol] | 19 | – | 25 | 200 | 1
6 | CC(CC1OCCc2ccccc21)NCC(O)c1cc(O)cc(O)c1 (centres unmarked) [Compound 9, 1-(3,5-Dihydroxyphenyl)-2-[2-(isochroman-1-yl)-1-methylethylamino]ethanol] | 1.18 | – | – | 200 | –
7 | Oc1ccc(C(O)CNCCC2OCCc3ccccc32)cc1 (centres unmarked) [Compound 23, 1-(4-Hydroxyphenyl)-2-[2-(isochroman-1-yl)ethylamino]ethanol] | 8.76 | – | – | – | –
8 | CC(CC1CCCc2ccccc21)NCC(O)c1ccc(O)cc1 (centres unmarked) [Compound 30, 1-(4-Hydroxyphenyl)-2-[2-(1,2,3,4-tetrahydro-1-naphthyl)-1-methylethylamino]ethanol] | 1.95 | – | > 100 | > 300 | 10
9 | COc1ccc(C(O)CNC(C)CC2OCCc3ccccc32)cc1 (centres unmarked) [Compound 10, 2-[2-(Isochroman-1-yl)-1-methylethylamino]-1-(4-methoxyphenyl)ethanol] | 81 | – | 100 | 200 | 10
10 | CC(CC1OCCc2ccccc21)NCC(O)c1ccc(F)cc1 (centres unmarked) [Compound 16, 1-(4-Fluorophenyl)-2-[2-(isochroman-1-yl)-1-methylethylamino]ethanol] | 61.4 | NE | > 100 | 300 | –
11 | CC(CC1OCCc2ccccc21)NC[C@@H](O)c1ccc(O)cc1 (stereo partly drawn) [Compound 3, (1S)-1-(4-hydroxyphenyl)-2-[2-(isochroman-1-yl)-1-methylethylamine]ethanol] | 2.76 | NE | – | – | –
12 | CC(CC1OCCc2ccccc21)NC[C@H](O)c1ccc(O)cc1 (some centres unmarked) [Compound 2, (IR)-1-(4-hydroxyphenyl)-2-[2-(isochroman-1-yl)-1-methylethylamino]ethanol] | 0.612 | – | > 100 | > 300 | 10
13 | COC(CNC(C)CC1OCCc2ccccc21)c1ccc(O)cc1 (centres unmarked) [Compound 25, 2-(4-Hydroxyphenyl)-N-[2-(isochroman-1-yl)-1-methylethylamino]-2-methoxyethylamine] | 2.4 | NE | – | – | –
14 | CC(CC1OCCc2ccccc21)NCC(O)c1ccccc1 (centres unmarked) [Compound 4, 2-[2-(Isochroman-1-yl)-1-methylethylamino]-1-phenylethanol] | 260 | – | 100 | 200 | 10
15 | CC(CC1OCCc2ccccc21)NC(C)C(O)c1ccc(O)cc1 (centres unmarked) [Compound 24, 1-(4-Hydroxyphenyl)-2-[2-(isochroman-1-yl)-1-methylethylamino]-1-propanol] | 1600 | NE | > 100 | > 300 | –
16 | CC(CC1OCCc2ccccc21)NCC(O)c1ccc(Cl)cc1 (centres unmarked) [Compound 17, 1-(4-Chlorophenyl)-2-[2-(isochroman-1-yl)-1-methylethylamino]ethanol] | 3400 | – | 100 | 100 | 1
17 | CC(CC1OCCc2ccccc21)NCC(O)c1ccc(O)cc1 (centres unmarked) [Compound 1, 1-(4-Hydroxyphenyl)-2-[2-(isochroman-1-yl)-1-methylethylamino]ethanol] | 12.8 | – | > 100 | > 300 | 10
18 | CC(CC1OCCc2ccccc21)NCC(O)Cc1ccccc1 (centres unmarked) [Compound 26, 1-[2-(Isochroman-1-yl)-1-methylethylamino]-3-phenyl-2-propanol] | 9040 | NE | – | – | –
19 | CC(CC1OCCc2ccccc21)NCC(O)c1cccc(O)c1 (centres unmarked) [Compound 7, 1-(3-Hydroxyphenyl)-2-[2-(isochroman-1-yl)-1-methylethylamino]ethanol] | 11 | – | 100 | 300 | 10
